Data published in article PMC7828477, “Synthesis and Evaluation of Novel Iminosugars Prepared from Natural Amino Acids” (Molecules, 2021).
Where a name gives a salt, the structure may show the parent alone.

What was measured:
Assay in all cases: p-nitrophenyl glycoside hydrolysis, A405, […] min
Format in all cases: biochemical
[1] = target: T1, α-L-fucosidase from Homo sapiens (Homo sapiens, UniProt P04066); settings: read-out: α-L-Fuc
T1 construct: gene FUCA1
T1 sequence (P04066 32-466): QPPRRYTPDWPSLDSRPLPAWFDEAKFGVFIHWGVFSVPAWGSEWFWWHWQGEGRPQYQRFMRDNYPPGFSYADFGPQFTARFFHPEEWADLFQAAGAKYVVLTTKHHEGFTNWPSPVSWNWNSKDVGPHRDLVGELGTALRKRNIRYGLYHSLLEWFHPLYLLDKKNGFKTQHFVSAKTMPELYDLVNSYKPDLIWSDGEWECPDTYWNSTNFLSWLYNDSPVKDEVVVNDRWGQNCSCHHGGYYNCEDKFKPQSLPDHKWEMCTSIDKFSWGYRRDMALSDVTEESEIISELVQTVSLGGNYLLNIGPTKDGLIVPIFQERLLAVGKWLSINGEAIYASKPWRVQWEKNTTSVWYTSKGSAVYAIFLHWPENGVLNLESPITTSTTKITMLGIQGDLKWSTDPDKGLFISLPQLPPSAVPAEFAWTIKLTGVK

[2] = target: α-galactosidase from Green coffee (Coffea arabica, UniProt Q42656); settings: read-out: α-Gal
Chain of α-galactosidase from Green coffee (Q42656 16-378): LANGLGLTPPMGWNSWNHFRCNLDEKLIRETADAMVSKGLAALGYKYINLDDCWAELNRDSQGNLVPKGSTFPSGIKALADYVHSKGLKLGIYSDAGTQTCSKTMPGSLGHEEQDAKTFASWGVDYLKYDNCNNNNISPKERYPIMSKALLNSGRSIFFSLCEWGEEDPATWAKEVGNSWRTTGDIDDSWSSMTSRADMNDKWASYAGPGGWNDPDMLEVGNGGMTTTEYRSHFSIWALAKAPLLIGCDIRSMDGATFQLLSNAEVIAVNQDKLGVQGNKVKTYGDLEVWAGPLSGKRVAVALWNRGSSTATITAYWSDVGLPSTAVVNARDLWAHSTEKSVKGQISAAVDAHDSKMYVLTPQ

[3] = target: T2, β-galactosidase from Escherichia coli (Escherichia coli, UniProt P00722); settings: read-out: β-Gal
T2 construct: gene lacZ
T2 sequence (P00722 2-1024): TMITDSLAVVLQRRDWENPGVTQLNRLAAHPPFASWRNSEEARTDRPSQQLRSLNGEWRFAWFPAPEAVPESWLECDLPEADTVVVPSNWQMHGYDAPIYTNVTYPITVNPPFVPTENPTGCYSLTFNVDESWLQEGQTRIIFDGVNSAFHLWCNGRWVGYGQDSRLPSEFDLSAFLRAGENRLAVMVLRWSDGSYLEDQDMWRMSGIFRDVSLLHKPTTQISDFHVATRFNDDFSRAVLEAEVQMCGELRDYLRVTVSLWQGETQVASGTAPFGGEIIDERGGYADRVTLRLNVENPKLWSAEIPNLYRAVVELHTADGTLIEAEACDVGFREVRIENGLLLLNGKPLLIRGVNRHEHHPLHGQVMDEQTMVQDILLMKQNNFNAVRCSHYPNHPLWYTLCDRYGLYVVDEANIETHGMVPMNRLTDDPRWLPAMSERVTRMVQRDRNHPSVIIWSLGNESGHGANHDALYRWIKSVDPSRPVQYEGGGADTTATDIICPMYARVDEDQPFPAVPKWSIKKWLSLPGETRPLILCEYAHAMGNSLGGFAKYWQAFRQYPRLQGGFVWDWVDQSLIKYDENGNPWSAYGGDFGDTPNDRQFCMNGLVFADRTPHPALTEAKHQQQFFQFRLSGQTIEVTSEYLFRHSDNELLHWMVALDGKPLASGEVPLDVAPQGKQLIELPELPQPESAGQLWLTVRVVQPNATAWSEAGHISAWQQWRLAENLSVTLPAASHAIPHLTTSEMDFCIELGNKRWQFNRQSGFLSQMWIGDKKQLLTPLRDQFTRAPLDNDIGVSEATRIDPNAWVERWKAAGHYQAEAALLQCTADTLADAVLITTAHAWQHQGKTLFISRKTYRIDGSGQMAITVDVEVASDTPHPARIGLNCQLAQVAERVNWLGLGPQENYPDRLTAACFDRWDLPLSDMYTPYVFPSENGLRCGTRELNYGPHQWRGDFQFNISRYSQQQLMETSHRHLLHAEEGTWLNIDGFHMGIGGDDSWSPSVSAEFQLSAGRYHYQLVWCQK

Structure (SMILES): C[C@@H]1NC[C@H]2[C@H](CO)[C@H]2[C@H]1O [6b, (1S,4S,5R,6S,7S)-7-(hydroxymethyl)-4-methyl-3-azabicyclo[4.1.0]heptan-5-ol]
- activity at 5000 µM [1]: 142%

Structure (SMILES): O=C(O)[C@H]1[C@@H]2CN[C@@H](CO)[C@@H](O)[C@@H]21 [10a, (1R,4S,5S,6S,7S)-7-carboxy-5-hydroxy-4-(hydroxymethyl)-3-azabicyclo[4.1.0]heptan-3-ium trifluoroacetate]
- activity at 5000 µM [2]: 154%

Structure (SMILES): OC[C@@H]1[C@@H]2CN[C@@H](CO)[C@@H](O)[C@H]12 [11b]
- activity at 5000 µM [3]: 25%
